pEC50: −log10 of the molar value. Starred links: 1 amine or outer side, 2 acyl side, 3 side chain; linkers in the order of their positions; H or OH if unused. Non-standard residues stand in square brackets, D forms with d. Residues, ends and D or L forms follow the SMILES beside them. Groups on a side chain read outwards from the residue. *: point of attachment. C20 diacid = O=C(O)CCCCCCCCCCCCCCCCCCC(=O)*; C18 diacid = O=C(O)CCCCCCCCCCCCCCCCC(=O)*; γGlu = O=C(O)[C@H](CCC(=O)[*:2])N[*:1]; αMeF = C[C@](N)(Cc1ccccc1)C(=O)O; PEG4 = NCCOCCOCCOCCOCCC(=O)O; PEG2 = NCCOCCOCCC(=O)O; AEEA = NCCOCCOCC(=O)O; Aib = CC(C)(N)C(=O)O
How the values were obtained:
[1] = molecular target: human glucagon receptor (hGCGR) (Homo sapiens, UniProt P47871); assay: cAMP production (HTRF) in CHO cells expressing hGCGR; assay type: cell-based; design: expressed in transfected cells; conditions: Table 7, peptides modified at position 20; cAMP in CHO hGCGR cells; geometric mean; read-out: hGluc-R EC50
Method in brief: (§1)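 Potency values represent EC50 from 4-parameter logistic curves of HTRF % Delta F signal. Receptor-expressing CHO cells (hGCGR 2×10^5 cells/mL, hGLP-1R 1×10^5 cells/mL) were exposed for 30 min at room temperature before two-step cAMP detection.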

[2] = molecular target: human GLP-1 receptor (hGLP-1R) (Homo sapiens, UniProt P43220); assay: cAMP production (HTRF) in CHO cells expressing hGLP-1R; assay type: cell-based; design: expressed in transfected cells; conditions: for pEC50: Table 7, peptides modified at position 20, cAMP in CHO hGLP-1R cells, geometric mean, read-out: hGLP-1R EC50; for % Relative Potency Ratio: Table 7, % GLP-1R activity relative to GLP-1 / % GlucR activity relative to glucagon
Method in brief: as §1

human GLP-1 receptor (hGLP-1R), sequence (P43220 24-463): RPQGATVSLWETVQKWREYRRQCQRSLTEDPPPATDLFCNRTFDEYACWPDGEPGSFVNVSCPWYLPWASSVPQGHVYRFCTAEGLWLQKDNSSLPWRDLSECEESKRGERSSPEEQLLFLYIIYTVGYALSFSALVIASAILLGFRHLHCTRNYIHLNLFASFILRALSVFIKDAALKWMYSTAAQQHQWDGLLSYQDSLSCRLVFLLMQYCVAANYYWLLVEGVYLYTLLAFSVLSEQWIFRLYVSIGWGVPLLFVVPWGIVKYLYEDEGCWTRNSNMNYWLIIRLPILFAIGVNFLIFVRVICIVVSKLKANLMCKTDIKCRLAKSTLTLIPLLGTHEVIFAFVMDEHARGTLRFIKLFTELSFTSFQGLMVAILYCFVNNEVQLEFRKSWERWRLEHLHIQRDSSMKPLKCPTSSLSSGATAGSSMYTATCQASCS
human glucagon receptor (hGCGR), sequence (P47871 26-477): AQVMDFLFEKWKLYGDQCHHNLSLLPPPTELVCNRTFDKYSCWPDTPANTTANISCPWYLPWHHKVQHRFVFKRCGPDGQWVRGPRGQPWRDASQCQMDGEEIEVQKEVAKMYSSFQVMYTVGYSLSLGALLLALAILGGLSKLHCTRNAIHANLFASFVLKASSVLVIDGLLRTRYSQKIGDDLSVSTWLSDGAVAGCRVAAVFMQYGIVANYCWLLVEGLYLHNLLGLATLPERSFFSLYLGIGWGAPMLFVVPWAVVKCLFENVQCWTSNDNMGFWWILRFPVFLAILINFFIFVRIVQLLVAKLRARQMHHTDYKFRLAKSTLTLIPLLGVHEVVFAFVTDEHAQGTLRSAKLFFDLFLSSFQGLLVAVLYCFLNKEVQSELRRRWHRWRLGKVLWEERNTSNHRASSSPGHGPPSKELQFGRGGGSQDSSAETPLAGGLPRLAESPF

| pEC50 [1] | pEC50 [2] | % Relative Potency Ratio [2] | Structure (SMILES) |
| --- | --- | --- | --- |
| 9.53 | 10.16 | 8.5 | CC[C@H](C)[C@H](NC(=O)C(C)(C)NC(=O)[C@H](CCC(N)=O)NC(=O)[C@@H](NC(=O)[C@](C)(Cc1ccccc1)NC(=O)[C@H](CC(=O)O)NC(=O)[C@H](CCCCNC(=O)CCOCCOCCNC(=O)CCOCCOCCNC(=O)CC[C@H](NC(=O)CC[C@H](NC(=O)CCCCCCCCCCCCCCCCCCC(=O)O)C(=O)O)C(=O)O)NC(=O)[C@H](C)NC(=O)[C@H](C)NC(=O)[C@H](CCCNC(=N)N)NC(=O)[C@H](CO)NC(=O)[C@H](CC(=O)O)NC(=O)[C@H](CC(C)C)NC(=O)[C@](C)(Cc1ccccc1)NC(=O)[C@H](CCCCN)NC(=O)[C@H](CO)NC(=O)[C@@H](NC(=O)[C@H](CC(=O)O)NC(=O)[C@H](CO)NC(=O)[C@@H](NC(=O)[C@](C)(Cc1ccccc1)NC(=O)[C@H](CO)NC(=O)CNC(=O)[C@H](Cc1c[nH]cn1)NC(=O)C(C)(C)NC(=O)[C@@H](N)Cc1c[nH]cn1)[C@@H](C)O)C(C)C)C(C)C)C(=O)N[C@@H](C)C(=O)N[C@@H](CC(N)=O)C(=O)N[C@H](C(N)=O)[C@@H](C)O [Peptide 264] (H-H[Aib]HGS[αMeF]TSDVSK[αMeF]LDSRAAK([PEG2-PEG2-γGlu-γGlu-C20 diacid])D[αMeF]VQ[Aib]IANT-NH2) |
| 9.88 | 10.15 | 3.6 | CC[C@H](C)[C@H](NC(=O)C(C)(C)NC(=O)[C@H](CCC(N)=O)NC(=O)[C@@H](NC(=O)[C@](C)(Cc1ccccc1)NC(=O)[C@H](CC(=O)O)NC(=O)[C@H](CCCCNC(=O)COCCOCCNC(=O)CC[C@H](NC(=O)COCCOCCNC(=O)CCCCCCCCCCCCCCCCCCC(=O)O)C(=O)O)NC(=O)[C@H](C)NC(=O)[C@H](C)NC(=O)[C@H](CCCNC(=N)N)NC(=O)[C@H](CO)NC(=O)[C@H](CC(=O)O)NC(=O)[C@H](CC(C)C)NC(=O)[C@](C)(Cc1ccccc1)NC(=O)[C@H](CCCCN)NC(=O)[C@H](CO)NC(=O)[C@@H](NC(=O)[C@H](CC(=O)O)NC(=O)[C@H](CO)NC(=O)[C@@H](NC(=O)[C@](C)(Cc1ccccc1)NC(=O)[C@H](CO)NC(=O)CNC(=O)[C@H](Cc1c[nH]cn1)NC(=O)C(C)(C)NC(=O)[C@@H](N)Cc1c[nH]cn1)[C@@H](C)O)C(C)C)C(C)C)C(=O)N[C@@H](C)C(=O)N[C@@H](CC(N)=O)C(=O)N[C@H](C(N)=O)[C@@H](C)O [Peptide 265] (H-H[Aib]HGS[αMeF]TSDVSK[αMeF]LDSRAAK([AEEA-γGlu-AEEA-C20 diacid])D[αMeF]VQ[Aib]IANT-NH2) |
| 9.53 | 10.18 | 8.7 | CC[C@H](C)[C@H](NC(=O)C(C)(C)NC(=O)[C@H](CCC(N)=O)NC(=O)[C@@H](NC(=O)[C@](C)(Cc1ccccc1)NC(=O)[C@H](CC(=O)O)NC(=O)[C@H](CCCCNC(=O)COCCOCCNC(=O)CC[C@H](NC(=O)COCCOCCNC(=O)CC[C@H](NC(=O)CCCCCCCCCCCCCCCCCCC(=O)O)C(=O)O)C(=O)O)NC(=O)[C@H](C)NC(=O)[C@H](C)NC(=O)[C@H](CCCNC(=N)N)NC(=O)[C@H](CO)NC(=O)[C@H](CC(=O)O)NC(=O)[C@H](CC(C)C)NC(=O)[C@](C)(Cc1ccccc1)NC(=O)[C@H](CCCCN)NC(=O)[C@H](CO)NC(=O)[C@@H](NC(=O)[C@H](CC(=O)O)NC(=O)[C@H](CO)NC(=O)[C@@H](NC(=O)[C@](C)(Cc1ccccc1)NC(=O)[C@H](CO)NC(=O)CNC(=O)[C@H](Cc1c[nH]cn1)NC(=O)C(C)(C)NC(=O)[C@@H](N)Cc1c[nH]cn1)[C@@H](C)O)C(C)C)C(C)C)C(=O)N[C@@H](C)C(=O)N[C@@H](CC(N)=O)C(=O)N[C@H](C(N)=O)[C@@H](C)O [Peptide 266] (H-H[Aib]HGS[αMeF]TSDVSK[αMeF]LDSRAAK([AEEA-γGlu-AEEA-γGlu-C20 diacid])D[αMeF]VQ[Aib]IANT-NH2) |
| 9.89 | 10.18 | 3.9 | CC[C@H](C)[C@H](NC(=O)C(C)(C)NC(=O)[C@H](CCC(N)=O)NC(=O)[C@@H](NC(=O)[C@](C)(Cc1ccccc1)NC(=O)[C@H](CC(=O)O)NC(=O)[C@H](CCCCNC(=O)CCOCCOCCOCCOCCNC(=O)CC[C@H](NC(=O)CCCCCCCCCCCCCCCCCCC(=O)O)C(=O)O)NC(=O)[C@H](C)NC(=O)[C@H](C)NC(=O)[C@H](CCCNC(=N)N)NC(=O)[C@H](CO)NC(=O)[C@H](CC(=O)O)NC(=O)[C@H](CC(C)C)NC(=O)[C@](C)(Cc1ccccc1)NC(=O)[C@H](CCCCN)NC(=O)[C@H](CO)NC(=O)[C@@H](NC(=O)[C@H](CC(=O)O)NC(=O)[C@H](CO)NC(=O)[C@@H](NC(=O)[C@](C)(Cc1ccccc1)NC(=O)[C@H](CO)NC(=O)CNC(=O)[C@H](Cc1c[nH]cn1)NC(=O)C(C)(C)NC(=O)[C@@H](N)Cc1c[nH]cn1)[C@@H](C)O)C(C)C)C(C)C)C(=O)N[C@@H](C)C(=O)N[C@@H](CC(N)=O)C(=O)N[C@H](C(N)=O)[C@@H](C)O [Peptide 267] (H-H[Aib]HGS[αMeF]TSDVSK[αMeF]LDSRAAK([PEG4-γGlu-C20 diacid])D[αMeF]VQ[Aib]IANT-NH2) |
| 10.53 | 10.40 | 1.5 | CC[C@H](C)[C@H](NC(=O)C(C)(C)NC(=O)[C@H](CCC(N)=O)NC(=O)[C@@H](NC(=O)[C@](C)(Cc1ccccc1)NC(=O)[C@H](CC(=O)O)NC(=O)[C@H](CCCCNC(=O)COCCOCCNC(=O)CC[C@H](NC(=O)CCCCCCCCCCCCCCCCCCC(=O)O)C(=O)O)NC(=O)[C@H](C)NC(=O)[C@H](C)NC(=O)[C@H](CCCNC(=N)N)NC(=O)[C@H](CO)NC(=O)[C@H](CC(=O)O)NC(=O)[C@H](CC(C)C)NC(=O)[C@](C)(Cc1ccccc1)NC(=O)[C@H](CCCCN)NC(=O)[C@H](CO)NC(=O)[C@@H](NC(=O)[C@H](CC(=O)O)NC(=O)[C@H](CO)NC(=O)[C@@H](NC(=O)[C@](C)(Cc1ccccc1)NC(=O)[C@H](CO)NC(=O)CNC(=O)[C@H](Cc1c[nH]cn1)NC(=O)C(C)(C)NC(=O)[C@@H](N)Cc1c[nH]cn1)[C@@H](C)O)C(C)C)C(C)C)C(=O)N[C@@H](C)C(=O)N[C@@H](CC(N)=O)C(=O)N[C@H](C(N)=O)[C@@H](C)O [Peptide 268] (H-H[Aib]HGS[αMeF]TSDVSK[αMeF]LDSRAAK([AEEA-γGlu-C20 diacid])D[αMeF]VQ[Aib]IANT-NH2; N-terminus assumed) |
| 9.57 | 10.28 | 10.3 | CC[C@H](C)[C@H](NC(=O)C(C)(C)NC(=O)[C@H](CCC(N)=O)NC(=O)[C@@H](NC(=O)[C@](C)(Cc1ccccc1)NC(=O)[C@H](CC(=O)O)NC(=O)[C@H](CCCCNC(=O)CCOCCOCCOCCOCCNC(=O)CC[C@H](NC(=O)CC[C@H](NC(=O)CCCCCCCCCCCCCCCCCCC(=O)O)C(=O)O)C(=O)O)NC(=O)[C@H](C)NC(=O)[C@H](C)NC(=O)[C@H](CCCNC(=N)N)NC(=O)[C@H](CO)NC(=O)[C@H](CC(=O)O)NC(=O)[C@H](CC(C)C)NC(=O)[C@](C)(Cc1ccccc1)NC(=O)[C@H](CCCCN)NC(=O)[C@H](CO)NC(=O)[C@@H](NC(=O)[C@H](CC(=O)O)NC(=O)[C@H](CO)NC(=O)[C@@H](NC(=O)[C@](C)(Cc1ccccc1)NC(=O)[C@H](CO)NC(=O)CNC(=O)[C@H](Cc1c[nH]cn1)NC(=O)C(C)(C)NC(=O)[C@@H](N)Cc1c[nH]cn1)[C@@H](C)O)C(C)C)C(C)C)C(=O)N[C@@H](C)C(=O)N[C@@H](CC(N)=O)C(=O)N[C@H](C(N)=O)[C@@H](C)O [Peptide 269] (H-H[Aib]HGS[αMeF]TSDVSK[αMeF]LDSRAAK([PEG4-γGlu-γGlu-C20 diacid])D[αMeF]VQ[Aib]IANT-NH2; N-terminus assumed) |
| 10.50 | 10.61 | 2.5 | CC[C@H](C)[C@H](NC(=O)C(C)(C)NC(=O)[C@H](CCC(N)=O)NC(=O)[C@@H](NC(=O)[C@](C)(Cc1ccccc1)NC(=O)[C@H](CC(=O)O)NC(=O)[C@H](CCCCNC(=O)CC[C@H](NC(=O)CC[C@H](NC(=O)CCCCCCCCCCCCCCCCC(=O)O)C(=O)O)C(=O)O)NC(=O)[C@H](C)NC(=O)[C@H](C)NC(=O)[C@H](CCCNC(=N)N)NC(=O)[C@H](CO)NC(=O)[C@H](CC(=O)O)NC(=O)[C@H](CC(C)C)NC(=O)[C@](C)(Cc1ccccc1)NC(=O)[C@H](CCCCN)NC(=O)[C@H](CO)NC(=O)[C@@H](NC(=O)[C@H](CC(=O)O)NC(=O)[C@H](CO)NC(=O)[C@@H](NC(=O)[C@](C)(Cc1ccccc1)NC(=O)[C@H](CO)NC(=O)CNC(=O)[C@H](Cc1c[nH]cn1)NC(=O)C(C)(C)NC(=O)[C@@H](N)Cc1c[nH]cn1)[C@@H](C)O)C(C)C)C(C)C)C(=O)N[C@@H](C)C(=O)N[C@@H](CC(N)=O)C(=O)N[C@H](C(N)=O)[C@@H](C)O [Peptide 270] (H-H[Aib]HGS[αMeF]TSDVSK[αMeF]LDSRAAK([γGlu-γGlu-C18 diacid])D[αMeF]VQ[Aib]IANT-NH2) |
| 10.55 | 10.26 | 1.0 | CC[C@H](C)[C@H](NC(=O)C(C)(C)NC(=O)[C@H](CCC(N)=O)NC(=O)[C@@H](NC(=O)[C@](C)(Cc1ccccc1)NC(=O)[C@H](CC(=O)O)NC(=O)[C@H](CCCCNC(=O)CC[C@H](NC(=O)CCCCCCCCCCCCCCCCC(=O)O)C(=O)O)NC(=O)[C@H](C)NC(=O)[C@H](C)NC(=O)[C@H](CCCNC(=N)N)NC(=O)[C@H](CO)NC(=O)[C@H](CC(=O)O)NC(=O)[C@H](CC(C)C)NC(=O)[C@](C)(Cc1ccccc1)NC(=O)[C@H](CCCCN)NC(=O)[C@H](CO)NC(=O)[C@@H](NC(=O)[C@H](CC(=O)O)NC(=O)[C@H](CO)NC(=O)[C@@H](NC(=O)[C@](C)(Cc1ccccc1)NC(=O)[C@H](CO)NC(=O)CNC(=O)[C@H](Cc1c[nH]cn1)NC(=O)C(C)(C)NC(=O)[C@@H](N)Cc1c[nH]cn1)[C@@H](C)O)C(C)C)C(C)C)C(=O)N[C@@H](C)C(=O)N[C@@H](CC(N)=O)C(=O)N[C@H](C(N)=O)[C@@H](C)O [Peptide 271] (H-H[Aib]HGS[αMeF]TSDVSK[αMeF]LDSRAAK([γGlu-C18 diacid])D[αMeF]VQ[Aib]IANT-NH2; N-terminus assumed) |

Source: patent publication US20250353891A1 (MEDIMMUNE LIMITED, priority 2022, published 2025)
